Assay [1] concerns primary rat adipocytes. The assay can be described thus: 2-Deoxyglucose uptake in insulin-stimulated primary rat adipocytes (predominantly GLUT4). The class given is cell-based. The conditions noted are these: for Effect on 2-deoxyglucose uptake (GLUT4 transporter activity): primary rat adipocytes. Here is the method: Adipocytes from epididymal fat pads were prepared from male Wistar rats weighing 150 – 200 g (from Charles River Laboratories, Inc., Wilmington, MA) as previously described. Adipocytes were stimulated with 1 µM insulin for 30 min at 37°C prior to use. 2-Deoxyglucose uptakes were performed by adding 80 µl of the cell suspension to 80 µl of Krebs-Ringer bicarbonate Hepes buffer (KRB) (120 mM NaCl, 4 mM KH2PO4, 1 mM MgSO4, 1 mM CaCl2, 10 mM NaHCO3, 200 nM adenosine, 30 mM Hepes, pH 7.4) containing 3% bovine serum albumin. HIV protease inhibitors / vehicle were added 5 min prior to the initiation of the reaction. Uptakes were initiated with the addition of 20 µl of [^3H]2-deoxyglucose (final 2-deoxyglucose concentration 50 µM; 0.5 µCi/assay). After 1 min at 37 °C, reactions were quenched with cytochalasin B to a final concentration of 0.4 mM. The cells were separated by spinning the reaction through dinonylphthalate as previously described and the intracellular radioactivity was quantified by liquid scintillation counting. Non-specific uptake measured in the presence of 20 µM cytochalasin B (Sigma) was subtracted from the experimental values.

For assay [2], the target named is T1, GLUT1 (Mus musculus, UniProt P17809).
T1 construct: LDM contains small intracellular vesicles of GLUT4 and GLUT1; endogenous in cells; host or cells: low-density microsome fraction of differentiated 3T3-L1 adipocytes
T1 sequence (P17809 1-492): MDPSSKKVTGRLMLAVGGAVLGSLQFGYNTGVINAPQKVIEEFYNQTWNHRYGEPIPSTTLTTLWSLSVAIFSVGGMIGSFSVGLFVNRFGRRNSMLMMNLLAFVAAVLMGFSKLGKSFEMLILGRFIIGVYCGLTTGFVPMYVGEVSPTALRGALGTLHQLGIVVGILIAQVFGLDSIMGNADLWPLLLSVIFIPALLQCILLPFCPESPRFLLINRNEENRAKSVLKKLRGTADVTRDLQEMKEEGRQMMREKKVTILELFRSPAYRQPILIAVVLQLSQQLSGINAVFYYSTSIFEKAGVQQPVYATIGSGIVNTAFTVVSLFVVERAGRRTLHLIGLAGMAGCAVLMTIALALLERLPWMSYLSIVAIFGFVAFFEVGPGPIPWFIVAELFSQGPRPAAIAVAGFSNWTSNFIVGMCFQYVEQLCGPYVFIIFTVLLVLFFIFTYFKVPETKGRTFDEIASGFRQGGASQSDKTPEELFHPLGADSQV
Put plainly: ATB-BMPA photolabeling of low-density microsomes (LDM) from 3T3-L1 adipocytes, GLUT1. The class given is binding. To be noted: LDM 200 µg, biotinylated ATB-BMPA 50 µM, mean ± S.E., n = 3; read-out: Half-maximal inhibition (IC50) of ATB-BMPA binding to GLUT1. Here is the method: (§1) 3T3-L1 fibroblasts were grown to confluency and 48 h later subjected to differentiation as previously described. 3T3-L1 adipocytes were used 10 – 14 days after differentiation. Six culture dishes (15 cm) of adipocytes were serum-starved overnight, washed 3 times with ice-cold HES buffer (50 mM Hepes, pH 7.4, 255 mM sucrose, and 1 mM EDTA) containing Roche complete protease inhibitors (Roche Applied Science, Mannheim, Germany), scraped into 5 ml of the same buffer, and then homogenized with either a ball-bearing homogenizer or with a Potter-Elvehjem tissue grinder and a PTFE pestle. The low-density microsome (LDM) fraction was obtained by differential centrifugation as described previously. LDM were resuspended in phosphate buffer (25 mM phosphate, pH 7.4, 100 mM NaCl, 5% glycerol) containing complete Roche protease inhibitors.
(§2) Inhibitors were added to LDM (200 µg protein unless otherwise stated) for 10 min at room temperature. Samples (final volume 110 µl) were then incubated for 10 min at room temperature in the dark with biotinylated ATB-BMPA (50 µM final concentration) and then placed on ice prior to UV irradiation. Reactions were transferred to a 24-well low protein retention culture dish (Costar, Corning, NY) and then irradiated at room temperature 5 cm from a Green Spot UV lamp for 1 min (30 sec of light, followed by 30 sec of darkness, followed by 30 sec of light).
(§3) 20 µl of BSA (1.5 mg/ml final concentration) was added to the UV irradiated samples in a siliconized eppendorph tube. Excess biotinylated ATB-BMPA label was removed using a 0.5 ml Zeba Spin Desalting Column (Pierce). Biotinylated proteins were isolated essentially as described previously. Membranes were solubilized for 30 min at 4°C with 2% Thesit detergent buffer containing protease inhibitors. After centrifugation at 16,000 x g for 10 min, the supernatants were incubated overnight at 4°C with 50 µl of high capacity Streptavidin Agarose resin (Pierce). Precipitates were washed 3 times with 1% Thesit detergent buffer, twice with 0.1% Thesit detergent buffer, and once with phosphate buffer. Biotinylated proteins were eluted at 95 – 100°C for 20 min in 60 µl of 2X Laemmli Sample Buffer containing 40 mM dithiothreitol. Half of the eluted proteins were subjected to SDS-PAGE and transferred to nitrocellulose. Immunoblot analysis was carried out using GLUT4 and GLUT1 specific antibodies and quantified using an Odyssey Infrared Imaging System (LI-COR Biosciences, Lincoln, NE).

Assay [3] concerns the target primary rat adipocytes. The conditions noted are these: read-out: KI from inhibition of zero trans glucose uptake; cited from earlier work.
The target of assay [4] is T2, GLUT4 (Mus musculus, UniProt P14142).
T2 sequence (P14142 1-509): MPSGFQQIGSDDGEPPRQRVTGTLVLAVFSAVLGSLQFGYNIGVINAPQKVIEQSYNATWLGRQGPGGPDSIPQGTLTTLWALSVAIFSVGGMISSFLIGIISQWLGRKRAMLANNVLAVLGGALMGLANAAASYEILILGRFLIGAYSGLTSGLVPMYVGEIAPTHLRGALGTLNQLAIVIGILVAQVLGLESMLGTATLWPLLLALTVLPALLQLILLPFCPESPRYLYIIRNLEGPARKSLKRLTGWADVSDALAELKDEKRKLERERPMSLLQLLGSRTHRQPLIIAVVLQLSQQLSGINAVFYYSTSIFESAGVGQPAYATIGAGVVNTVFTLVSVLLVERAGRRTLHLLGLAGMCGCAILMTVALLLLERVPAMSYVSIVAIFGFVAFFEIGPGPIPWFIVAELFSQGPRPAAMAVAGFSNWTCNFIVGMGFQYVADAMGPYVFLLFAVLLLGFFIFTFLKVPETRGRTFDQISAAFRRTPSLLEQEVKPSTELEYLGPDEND
The assay can be described thus: ATB-BMPA photolabeling of low-density microsomes (LDM) from 3T3-L1 adipocytes, GLUT4. In kind it is binding. The conditions noted are these: LDM 200 µg, biotinylated ATB-BMPA 50 µM, mean ± S.E., n = 3; read-out: Half-maximal inhibition (IC50) of ATB-BMPA binding to GLUT4. Also noted: LDM contains small intracellular vesicles of GLUT4 and GLUT1; endogenous in cells; host or cells: low-density microsome fraction of differentiated 3T3-L1 adipocytes. Here is the method:
as §1, §2, §3

Molecules are shown by their SMILES.

The values below come from publication PMC3179492, “HIV Protease Inhibitors Act as Competitive Inhibitors of the Cytoplasmic Glucose Binding Site of GLUTs with Differing Affinities for GLUT1 and GLUT4” (PLoS ONE, 2011).

The term IC50 denotes the concentration needed to halve the response being measured. By Ki is commonly meant the equilibrium dissociation constant of an inhibitor or competing ligand from its target.

Consider `CC(C)(C)NC(=O)[C@@H]1CN(Cc2cccnc2)CCN1C[C@@H](O)C[C@@H](Cc1ccccc1)C(=O)N[C@H]1c2ccccc2C[C@H]1O` [Indinavir, indinavir], for which the “Effect on 2-deoxyglucose uptake (GLUT4 transporter activity)” value in assay [1] (10 µM PI) is “reduced”; in assay [1] (50 µM PI) it was “affected”. Further, the IC50 in assay [1] (Rattus norvegicus, Adipocyte, insulin-stimulated, 50 µM 2-deoxyglucose, read-out: IC50 for inhibition of 2-deoxyglucose uptake in primary rat adipocytes) amounted to 11 µM; in assay [2], 178 ± 43 µM; in assay [4], 20.7 ± 3.9 µM. The Ki in assay [3] was 15 µM.
